According to patent US8586555B2, “Immunomodulatory compositions, formulations, and methods for use thereof” (Dynavax Technologies Corporation, priority 2001, dated 2013):

Experiments:
Format in all cases: cell-based
[1] = test system: human peripheral blood mononuclear cells (hPBMC); assay: human PBMC assay, Example 3 (oligo and PLGA added at the same time, 48 well plates); conditions: for IFN-α / IFN-γ: oligo 20 μg/ml, PLGA 250 μg/ml, 24 hours
Description: (§1) Hexameric oligonucleotides were tested for immunomodulatory activity alone and complexed with lactic acid/glycolic acid copolymer microcarrier beads using a human peripheral blood mononuclear cells (hPBMC) assay. Peripheral blood was collected from healthy volunteers by venipuncture using heparinized syringes. Blood was layered onto a FICOLL® (Amersham Pharmacia Biotech) cushion and centrifuged. hPBMCs, located at the FICOLL® interface, were collected, then washed twice with cold phosphate buffered saline (PBS). The cells were resuspended and cultured in 48 well plates at 2×10^6 cells/mL at 37° C. in RPMI 1640 with 10% heat-inactivated human AB serum plus 50 units/mL penicillin, 50 μg/mL streptomycin, 300 μg/mL glutamine, 1 mM sodium pyruvate, and 1×MEM non-essential amino acids (NEAA).
(§2) Oligonucleotides were tested as single agents, or in combination with PLGA microspheres (unmodified or cationic). All oligonucleotides contained 100% phosphorothioate linkages and were tested at 20 μg/ml. The PLGA microcarriers were used at 250 μg/ml. When oligos were tested with PLGA microcarriers, the oligo and the microcarriers were added at the same time to the culture. The cells were cultured in the in the presence of test samples for 24 hours, then cell-free medium was collected from each well and assayed for IFN-γ and IFN-α concentration. Two different oligonucleotides were used as controls: a first oligonucleotide known to have immunostimulatory activity (a 22mer oligonucleotide containing an ISS (“ISS+,” 5′-[…]-3′(SEQ ID NO:2)) and a second oligonucleotide of similar sequence but lacking immunostimulatory activity (“ISS−,” 5′-[…]-3′ (SEQ ID NO:1)). SAC (PANSORBIN® CalBiochem, 1/5000 dilution) and a untreated culture were used as additional positive and negative controls, respectively. SAC contains Staph. aureus (Cowan I) cell material. All samples were assayed in duplicate.
(§3) IFN-γ and IFN-α were assayed using CYTOSCREEN™ ELISA kits from BioSource International, Inc., according to the manufacturer's instructions.

[2] = test system: human peripheral blood mononuclear cells (hPBMC); assay: human PBMC assay, Example 5 (96 well plates, premixed); conditions: for IFN-α Mean / IFN-γ Mean: mean of donors 28051-28054
Description: as §1, §2, §3
The immunomodulatory activity of the oligonucleotides used in Examples 3 and 4 was confirmed with the human PBMC assay using PBMCs from an additional four donors (donors 28051-28054). Oligonucleotides were tested alone or in combination with cationic PLGA as described in Example 3, except that 96 well plates were used instead of 48 well plates and the oligonucleotides were premixed with the cationic microspheres at room temperature for 15 minutes before they were added to the culture, rather than being added simultaneously to the culture.

[3] = test system: human peripheral blood mononuclear cells (hPBMC); assay: human PBMC assay, Example 4 (oligos and PLGA premixed 15 minutes); conditions: for IFN-α Mean / IFN-γ Mean: mean of donors 28044, 28045
Description: as §1, §2, §3
Additional hexameric and pentameric oligonucleotides were tested for immunomodulatory activity in the PBMC assay. Oligonucleotides 6-6 (5′-TCGAGA-3′), 6-8 (5′-GTCGAC-3′), 6-9 (5′-GTCGTT-3′), 6-2 (5′-TCGTTT-3′), 6-3 (5′-TTCGTT-3′), 6-4 (5′-TTTCGT-3′), 5-1 (5′-TCGTC-3′), and 5-2 (5′-TCGTT-3′) were tested alone or in combination with cationic PLGA as described in Example 3 except that the oligos and PLGA were premixed for 15 minutes room temperature before addition to the cultures. The test articles were assayed using PBMC isolated from donors 28044 and 28045.

[4] = delivered as IMO/MC complexes (cPLGA)

| Substance | immunomodulatory activity [2, 4] | IFN-α ([2]; donor 28051) [pg/mL] | IFN-γ ([2]; donor 28051) [pg/mL] | IFN-α ([2]; donor 28052) [pg/mL] | IFN-γ ([2]; donor 28052) [pg/mL] | IFN-α ([2]; donor 28053) [pg/mL] | IFN-γ ([2]; donor 28053) [pg/mL] | IFN-α ([2]; donor 28054) [pg/mL] | IFN-γ ([2]; donor 28054) [pg/mL] | IFN-α Mean [2] [pg/mL] | IFN-γ Mean [2] [pg/mL] | IFN-α ([3]; donor 28044) [pg/mL] | IFN-γ ([3]; donor 28044) [pg/mL] | IFN-α ([3]; donor 28045) [pg/mL] | IFN-γ ([3]; donor 28045) [pg/mL] | IFN-α Mean [3] [pg/mL] | IFN-γ Mean [3] [pg/mL] | immunomodulatory activity ([2]; delivered alone) | further results |
| --- | --- | --- | --- | --- | --- | --- | --- | --- | --- | --- | --- | --- | --- | --- | --- | --- | --- | --- | --- |
| 5′-AACGTT-3′ [Oligonucleotide 6-16] | variable activity | 2 | 1 | 1 | 2 | 1 | 2 | 2 | 8 | 2 | 3 |  |  |  |  |  |  |  | IFN-α ([1]; donor 28033): 3 pg/mL; IFN-γ ([1]; donor 28033): 0 pg/mL; IFN-α ([1]; donor 28034): 48 pg/mL; IFN-γ ([1]; donor 28034): 3 pg/mL; IFN-α induction ([1]; in combination with cationic PLGA): induce IFN-α in one of the two donors; IFN-α Mean ([1]; mean of donors 28033, 28034): 26 pg/mL; IFN-γ Mean ([1]; mean of donors 28033, 28034): 2 pg/mL |
| 5′-GTCGAC-3′ [Oligonucleotide 6-8] | highly active | 1 | 0 | 0 | 0 | 6 | 1 | 0 | 2 | 2 | 1 | 0 | 6 | 0 | 0 | 0 | 3 | inactive |  |
| 5′-GTCGTT-3′ [Oligonucleotide 6-9] | highly active | 0 | 1 | 0 | 0 | 6 | 2 | 0 | 1 | 2 | 1 | 0 | 6 | 0 | 0 | 0 | 3 | inactive |  |
| 5′-TCGAGA-3′ [Oligonucleotide 6-6] | highly active | 1 | 2 | 4 | 2 | 0 | 1 | 10 | 2 | 4 | 2 | 0 | 0 | 0 | 0 | 0 | 0 | inactive |  |
